Source: PubChem BioAssay (NCI)
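Values below derive from 48-hour exposures of cells grown in 96-well plates, with endpoints linearly interpolated between the two concentrations bracketing the appropriate inhibition level. Definition used: TGI = concentration required for complete inhibition of growth.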 Starred links: 1 amine or outer side, 2 acyl side, 3 side chain; linkers in the order of their positions; H or OH if unused. Positions of bridges follow the written chain, without caps; N, C: chain ends. Non-standard residues stand in square brackets, D forms with d. Residues, ends and D or L forms follow the SMILES beside them. *: point of attachment. X3 = CC(C)C(C)C(C(=O)[*:2])N(C)[*:1]; Picolinoyl(3-OH) = O=C(c1ncccc1O)*; NMePhg = CN[CH](C(=O)O)c1ccccc1; Hyp = O=C(O)[CH]1C[CH](O)CN1; Sar = CNCC(=O)O

What was measured:
Assay in all cases: NCI tumour cell line growth inhibition, 48 h
SR leukemia = system: SR leukemia
M14 melanoma = system: M14 melanoma
OVCAR-3 ovarian = system: OVCAR-3 ovarian
SK-OV-3 ovarian = system: SK-OV-3 ovarian
IGROV1 ovarian = system: IGROV1 ovarian
SF-295 CNS = system: SF-295 CNS
786-0 renal = system: 786-0 renal
DMS 114 small cell lung = system: DMS 114 small cell lung
SNB-75 CNS = system: SNB-75 CNS
COLO 205 colon = system: COLO 205 colon
RXF 393 renal = system: RXF 393 renal
SK-MEL-5 melanoma = system: SK-MEL-5 melanoma
CCRF-CEM leukemia = system: CCRF-CEM leukemia
RPMI-8226 leukemia = system: RPMI-8226 leukemia
LOX IMVI melanoma = system: LOX IMVI melanoma
U251 CNS = system: U251 CNS
NCI-H522 lung = system: NCI-H522 lung
SNB-19 CNS = system: SNB-19 CNS
HOP-92 NSCLC = system: HOP-92 NSCLC
TK-10 renal = system: TK-10 renal
A549 NSCLC = system: A549 NSCLC
CAKI-1 renal = system: CAKI-1 renal
OVCAR-8 ovarian = system: OVCAR-8 ovarian
SF-268 CNS = system: SF-268 CNS
SW-620 colon = system: SW-620 colon
UO-31 renal = system: UO-31 renal
HOP-62 NSCLC = system: HOP-62 NSCLC
HCT-15 colon = system: HCT-15 colon
HT29 colon = system: HT29 colon
SK-MEL-28 melanoma = system: SK-MEL-28 melanoma
SN12C renal = system: SN12C renal
MALME-3M melanoma = system: MALME-3M melanoma
M19-MEL melanoma = system: M19-MEL melanoma
UACC-257 melanoma = system: UACC-257 melanoma
SK-MEL-2 melanoma = system: SK-MEL-2 melanoma
KM12 colon = system: KM12 colon
UACC-62 melanoma = system: UACC-62 melanoma
ACHN renal = system: ACHN renal
LXFL 529 NSCLC = system: LXFL 529 NSCLC
HCT-116 colon = system: HCT-116 colon
RXF-631 renal = system: RXF-631 renal
OVCAR-5 ovarian = system: OVCAR-5 ovarian
DLD-1 colon = system: DLD-1 colon
HOP-18 NSCLC = system: HOP-18 NSCLC
NCI-H23 lung = system: NCI-H23 lung
MOLT-4 leukemia = system: MOLT-4 leukemia
SNB-78 CNS = system: SNB-78 CNS
HL-60(TB) leukemia = system: HL-60(TB) leukemia
EKVX NSCLC = system: EKVX NSCLC
XF 498 CNS = system: XF 498 CNS
DMS 273 small cell lung = system: DMS 273 small cell lung
KM20L2 colon = system: KM20L2 colon
SN12K1 renal = system: SN12K1 renal
P388/ADR leukemia = system: P388/ADR leukemia
NCI-H226 lung = system: NCI-H226 lung

Work on O=c1[nH]c(=S)[nH]c2c1CCCN2 yielded a TGI (SR leukemia) greater than 100 µM, a TGI (M14 melanoma) greater than 100 µM and a TGI (OVCAR-3 ovarian) greater than 100 µM. For the same compound, the TGI (SK-OV-3 ovarian) was greater than 100 µM, the TGI (IGROV1 ovarian) was greater than 100 µM and the TGI (SF-295 CNS) was greater than 100 µM. It also gave a TGI (786-0 renal) greater than 100 µM, a TGI (DMS 114 small cell lung) greater than 100 µM and a TGI (SNB-75 CNS) greater than 100 µM. For the same compound, the TGI (COLO 205 colon) was greater than 100 µM, the TGI (RXF 393 renal) was greater than 100 µM and the TGI (SK-MEL-5 melanoma) was greater than 100 µM. It also gave a TGI (CCRF-CEM leukemia) greater than 100 µM, a TGI (RPMI-8226 leukemia) greater than 100 µM and a TGI (LOX IMVI melanoma) greater than 100 µM. The TGI (U251 CNS) was greater than 100 µM, the TGI (NCI-H522 lung) was greater than 100 µM and the TGI (SNB-19 CNS) was greater than 100 µM. It also gave a TGI (HOP-92 NSCLC) greater than 100 µM, a TGI (TK-10 renal) greater than 100 µM and a TGI (A549 NSCLC) greater than 100 µM. The TGI (CAKI-1 renal) was greater than 100 µM, the TGI (OVCAR-8 ovarian) was greater than 100 µM and the TGI (SF-268 CNS) was greater than 100 µM. It also gave a TGI (SW-620 colon) greater than 100 µM, a TGI (UO-31 renal) greater than 100 µM and a TGI (HOP-62 NSCLC) greater than 100 µM. For the same compound, the TGI (HCT-15 colon) was greater than 100 µM, the TGI (HT29 colon) was greater than 100 µM and the TGI (SK-MEL-28 melanoma) was greater than 100 µM. For the same compound, the TGI (SN12C renal) was greater than 100 µM, the TGI (MALME-3M melanoma) was greater than 100 µM and the TGI (M19-MEL melanoma) was greater than 100 µM. For the same compound, the TGI (UACC-257 melanoma) was greater than 100 µM, the TGI (SK-MEL-2 melanoma) was greater than 100 µM and the TGI (KM12 colon) was greater than 100 µM. The TGI (UACC-62 melanoma) was greater than 100 µM, the TGI (ACHN renal) was greater than 100 µM and the TGI (LXFL 529 NSCLC) was greater than 100 µM. It also gave a TGI (HCT-116 colon) greater than 100 µM, a TGI (RXF-631 renal) greater than 100 µM and a TGI (OVCAR-5 ovarian) greater than 100 µM. For the same compound, the TGI (DLD-1 colon) was greater than 100 µM, the TGI (HOP-18 NSCLC) was greater than 100 µM and the TGI (NCI-H23 lung) was greater than 100 µM. For the same compound, the TGI (MOLT-4 leukemia) was greater than 100 µM, the TGI (SNB-78 CNS) was greater than 100 µM and the TGI (HL-60(TB) leukemia) was greater than 100 µM. For the same compound, the TGI (EKVX NSCLC) was greater than 100 µM.

In the case of CC(C)CC1NC(=O)C(NC(=O)c2ncccc2O)C(C)OC(=O)C(c2ccccc2)N(C)C(=O)C(C)NC(=O)C(C(C)C(C)C)N(C)C(=O)CN(C)C(=O)C2CC(O)CN2C1=O (stereo not drawn) ({Picolinoyl(3-OH)}-TL[Hyp][Sar][X3]A[NMePhg]; ester 1-C; configuration not given here), the TGI (XF 498 CNS) is reported as greater than 120 µM, the TGI (DMS 114 small cell lung) is reported as greater than 125 µM and the TGI (DMS 273 small cell lung) is reported as greater than 125 µM. It also gave a TGI (KM20L2 colon) greater than 12.5 µM, a TGI (HOP-92 NSCLC) greater than 125 µM and a TGI (SN12K1 renal) greater than 125 µM. For the same compound, the TGI (P388/ADR leukemia) was greater than 125 µM, the TGI (M19-MEL melanoma) was greater than 125 µM and the TGI (UACC-257 melanoma) was greater than 125 µM. It also gave a TGI (NCI-H226 lung) greater than 125 µM, a TGI (DLD-1 colon) greater than 125 µM and a TGI (HOP-18 NSCLC) greater than 125 µM. It also gave a TGI (NCI-H23 lung) greater than 125 µM and a TGI (SNB-78 CNS) greater than 125 µM.
